Molecular target: T1, Tyrosine-protein phosphatase non-receptor type 1 (Homo sapiens) (UniProt P18031)
T1 sequence (whole entry): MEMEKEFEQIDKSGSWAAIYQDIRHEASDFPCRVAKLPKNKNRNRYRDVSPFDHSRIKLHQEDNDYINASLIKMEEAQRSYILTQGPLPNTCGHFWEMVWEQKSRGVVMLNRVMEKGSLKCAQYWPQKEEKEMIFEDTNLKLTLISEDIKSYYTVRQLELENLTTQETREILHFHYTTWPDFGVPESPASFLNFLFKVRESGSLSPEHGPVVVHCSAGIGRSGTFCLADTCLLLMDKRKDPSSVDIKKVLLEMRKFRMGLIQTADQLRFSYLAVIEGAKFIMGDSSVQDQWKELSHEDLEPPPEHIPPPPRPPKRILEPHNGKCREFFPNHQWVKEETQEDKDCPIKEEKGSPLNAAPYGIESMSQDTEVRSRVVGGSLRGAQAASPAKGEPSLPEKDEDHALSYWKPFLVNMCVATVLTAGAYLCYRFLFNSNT
Experiment: Binding affinity for protein tyrosine phosphatase 1B

**Q.** Which Affinity does the source give for `NCc1ccc(NC(=O)C(=O)O)cc1` here?
**A.** 86 µM
